Test results reported in US9795570B2, “Modulation of macrophage phenotype by emodin” (University of South Carolina, priority 2016, dated 2017).

Tests used:
[1] = system: mouse peritoneal macrophages; assay: Whole genome microarray, macrophages stimulated with IL4; assay type: cell-based
Procedure: Three milliliters of 4% Thioglycolate solution was injected intraperitoneally into 8-12 week old C57BL/6 mice. Three days later, macrophages were collected by lavaging the peritoneal cavity with PBS. The cells were then resuspended in DMEM containing 10% FBS. After 2 h, non-adherent cells were washed away with PBS and the macrophages were cultured overnight in serum free DMEM. The macrophages were then treated with DMEM containing IL4 (10 ng/ml, BioAbChem Inc. Ladson, S.C.) or LPS (100 ng/ml, Sigma-Aldrich) and IFNγ (20 ng/ml, BioAbChem Inc) with or without emodin. Emodin was purchased from Nanjing Langze Medicine and Technology Co. Ltd (Nanjing, China) and dissolved in DMSO at a concentration of 10 mg/ml as a stock solution.
Microarray analysis was carried out as described previously, with a few alterations. Macrophages were stimulated with IL4 for 6 h or LPS+IFNγ for 24 h with or without emodin (50 μM). Samples were prepared in biological replicates of 4. Cells were lysed with Qiazol and RNA was extracted using Qiagen's miRNeasy kit. Agilent's 2100 Bioanalyzer was used to determine the quality and quantity of the RNA. […] The RNA was amplified and labeled with Agilent's Low Input Quick Amp Labeling Kit (Agilent) according to the manufacturer's instructions. Labeled RNA was then purified using Qiagen's RNeasy Mini Kit (Qiagen, Valencia, Calif.) and dye incorporation and cRNA yield were assessed. Labeled samples were hybridized to Agilent Whole Mouse Genome Microarrays 8×60K (Agilent) using Agilent's Gene Expression Hybridization Kit (Agilent) according to the manufacturer's instructions. Microarray analysis was performed using an Agilent DNA Microarray Scanner System (Cat. # G2565CA).
For microarray analysis, data was extracted from images with Feature Extractor Software version 10.7.3.1 (Agilent); background correction using detrending algorithms was performed. Subsequently, background-corrected data was uploaded into GeneSpring GX version 11.5.1 for analysis. In this process, data was log 2 transformed, quantile normalized and baseline transformed using the median of all samples. […] Differentially expressed genes were determined by analysis of the data using the Mann-Whitney unpaired statistics. A cutoff p-value of 0.05 and a fold change cutoff value of 2.0 were used to filter the data. Pathway analysis was performed using Ingenuity Pathway Analysis software.

[2] = system: H3K27m3 and H3K27ac; assay: Histone modifications H3K27m3/H3K27ac (western blotting, ChIP assay); assay type: cell-based, mouse
Procedure: Following stimulation with IL4 or LPS+IFNγ with or without emodin for varying periods, macrophages were lysed with cell signaling lysis buffer (Millipore) for whole cell lysates. Cytoplasmic and nuclear extracts were prepared using the Epiquik Nuclear Extraction kit (Epigentek, Farmingdale, N.Y.). Total protein was separated on 4-20% Tris-glycine pre-cast gels (Pierce) and transferred onto Nitrocellulose membranes (Bio-Rad Life Science, Hercules, Calif.). The membranes were then probed with HRP conjugated secondary antibodies, and signals were detected using Pierce ECL Western Blotting Substrate (Pierce).
Macrophages were stimulated with IL4 or LPS+IFNγ for 24 h with or without emodin. They were then fixed in 1% formaldehyde. Excess formaldehyde was quenched with glycine and the cells were collected in PBS by scraping. The cells were lysed (0.5% IGEPAL, 4 mM HEPES) and the nuclei were resuspended in nuclear lysis buffer (1% SDS, 10 mM EDTA, and 50 mM Tris, pH 8.1). The DNA was sheared by sonication using a Diagnode Bioruptor Pico for 15 cycles of 30 s on/30 s off. Then 10 μg chromatin was diluted 1:10 (0.01% SDS, 1.1% Triton X-100, 1.2 mM EDTA, 16.7 mM Tris-HCl, pH 8.1, 167 mM NaCl) and 2% of the input was removed from each sample and saved for analysis. Anti-H3K27m3 or anti-H3K27ac (Abcam) was added to each sample along with 20 μl of protein A+G magnetic beads (Millipore) and the samples were incubated overnight at 4° C. The beads were washed with low salt, high salt, LiCl, and TE wash buffers sequentially and the DNA was eluted off the beads with Proteinase K at 62° C. for 2 h (elution buffer: 200 mM NaCl, 1% SDS and 50 mM Tris). The DNA was then analyzed by real time PCR.

[3] = system: 4T1 cells; assay: Cell viability, LDH assay; assay type: cell-based, mouse; conditions: emodin 0-100 μM, 24-48 h
Procedure: Tumor cells (2×10^4 EO771 or 4T1 cells) were seeded into 96 well culture plates in DMEM with 10% FBS. The cells were incubated overnight at 37° C. The medium was then removed, and the cells were washed with phosphate-buffered saline (PBS). DMEM containing varying concentrations of emodin (0-100 μM) was then added to the cells in quadruplicate. Vehicle control contained an equal volume of DMSO. Plates of cells were then incubated for 24-48 h. After an indicated period, the viability of the cells was determined using a Lactate Dehydrogenase (LDH) Cytotoxicity Detection Kit (Clontech Mountain View, Calif.) according to the manufacturer's instructions. Briefly, the supernatant was removed from each well on the plate and placed in a new well on the same plate. An equal volume of cell lysis buffer (2% triton in DMEM) was then added to each well containing the cancer cells, and the cells were incubated at room temperature for 15 min. The reaction mixture was then added to each well (cell lysate plus supernatant) and incubated for 5 min before the stop solution was added. The absorbance was measured at 490 nm on a Spectra Max M5 Microplate Reader (Molecular Devices, Sunnyvale, Calif.). The percent viability was then calculated as the ratio of LDH in the cell lysate to the total amount of LDH in the lysate plus the supernatant. The viability of each group was compared to the control.

## Cc1cc(O)c2c(c1)C(=O)c1cc(O)cc(O)c1C2=O [emodin]
[1]; Arg1, microarray, emodin 50 μM
  fold reduction of IL4 induced expression: 7.69 fold
[1]; CXCL2, microarray
  fold increase of expression under IL4 stimulation: 60.6 fold
[1]; CXCL10, microarray
  fold increase of expression under IL4 stimulation: 15.5 fold
[1]; Ch3I3, microarray, emodin 50 μM
  fold reduction of IL4 induced expression: 4.24 fold
[1]; IRF4, microarray, emodin 50 μM
  fold reduction of IL4 induced expression: 97.43 fold
[1]; Mrc1, microarray, emodin 50 μM
  fold reduction of IL4 induced expression: 2.29 fold
[1]; SOCS1, microarray, emodin 50 μM
  fold reduction of IL4 induced expression: 22.9 fold
[1]; TNFα, microarray
  fold increase of expression under IL4 stimulation: 2.7 fold
[1]; emodin 50 μM, IL4 6 h
  IL4 responsive genes whose induced changes were inhibited: ~60%
[1]; gene Arg1, microarray, emodin 50 μM
  Em + LPS vs. LPS/IFN (gene expression): −7.69
[1]; gene CCL7, microarray, emodin 50 μM
  Em + LPS vs. LPS/IFN (gene expression): −4.16
[1]; gene CCL11, microarray, emodin 50 μM
  Em + LPS vs. LPS/IFN (gene expression): −11.31
[1]; gene CCL12, microarray, emodin 50 μM
  Em + LPS vs. LPS/IFN (gene expression): 2.30
[1]; gene CCL28, microarray, emodin 50 μM
  Em + LPS vs. LPS/IFN (gene expression): 2.27
[1]; gene CDH1, microarray, emodin 50 μM
  Em + LPS vs. LPS/IFN (gene expression): −5.72
[1]; gene CDKN1A, microarray, emodin 50 μM
  Em + LPS vs. LPS/IFN (gene expression): 29.78
[1]; gene CISH, microarray, emodin 50 μM
  Em + LPS vs. LPS/IFN (gene expression): −7.11
[1]; gene CXCL2, microarray, emodin 50 μM
  Em + LPS vs. LPS/IFN (gene expression): 60.63
[1]; gene CXCL10, microarray, emodin 50 μM
  Em + LPS vs. LPS/IFN (gene expression): 15.05
[1]; gene CXCR1, microarray, emodin 50 μM
  Em + LPS vs. LPS/IFN (gene expression): 12.40
[1]; gene Ccl2, microarray, emodin 50 μM
  Em + LPS vs. LPS/IFN (gene expression): −4.26
[1]; gene Chi3I3, microarray, emodin 50 μM
  Em + LPS vs. LPS/IFN (gene expression): −4.24
[1]; gene FCGR2B, microarray, emodin 50 μM
  Em + LPS vs. LPS/IFN (gene expression): −2.15
[1]; gene FLT1, microarray, emodin 50 μM
  Em + LPS vs. LPS/IFN (gene expression): −27.09
[1]; gene IL1R1, microarray, emodin 50 μM
  Em + LPS vs. LPS/IFN (gene expression): −2.15
[1]; gene IL6, microarray, emodin 50 μM
  Em + LPS vs. LPS/IFN (gene expression): −5.30
[1]; gene IL19, microarray, emodin 50 μM
  Em + LPS vs. LPS/IFN (gene expression): −20.01
[1]; gene IRF4, microarray, emodin 50 μM
  Em + LPS vs. LPS/IFN (gene expression): −97.43
[1]; gene IRF5, microarray, emodin 50 μM
  Em + LPS vs. LPS/IFN (gene expression): −2.58
[1]; gene ITGB8, microarray, emodin 50 μM
  Em + LPS vs. LPS/IFN (gene expression): −4.32
[1]; gene MMP13, microarray, emodin 50 μM
  Em + LPS vs. LPS/IFN (gene expression): 3.68
[1]; gene Mrc1, microarray, emodin 50 μM
  Em + LPS vs. LPS/IFN (gene expression): −2.29
[1]; gene PLA2G5, microarray, emodin 50 μM
  Em + LPS vs. LPS/IFN (gene expression): 4.26
[1]; gene PTGS2, microarray, emodin 50 μM
  Em + LPS vs. LPS/IFN (gene expression): 2.56
[1]; gene RBP4, microarray, emodin 50 μM
  Em + LPS vs. LPS/IFN (gene expression): −15.56
[1]; gene SOCS1, microarray, emodin 50 μM
  Em + LPS vs. LPS/IFN (gene expression): −22.90
[1]; gene SOCS2, microarray, emodin 50 μM
  Em + LPS vs. LPS/IFN (gene expression): −5.47
[1]; gene TNF, microarray, emodin 50 μM
  Em + LPS vs. LPS/IFN (gene expression): 2.69
[1]; microarray
  expression of CDKN1A (p21): increased the expression
  expression of M2 genes YM1 and Mrc1 in IL4-stimulated cells: reducing them
[2]; ChIP assay
  IL4-induced decrease of H3K27m3 in the promoter of IRF4, Arg1 and YM1 genes: reversed
  LPS/IFNγ-induced decrease of H3K27m3 in the promoter of iNOS, TNFα and IL6 genes: attenuated
  induced increase of H3K27ac in promoters (LPS/IFNγ: iNOS, TNFα, IL6; IL4: IRF4, YM1): suppressed
[2]; western blotting, LPS/IFNγ or IL4, emodin 50 μM 24 h
  global expression of H3K27m3 or H3K27ac: no effect
[3]
  concentration from which a slight effect on cell viability starts: ≥ 25 µM
